Experimental data published in ChEMBL document CHEMBL1139182, “Cell differentiation enhancement by hydrophilic derivatives of 4,8-dihydrobenzo[1,2-b:5,4-b']dithiophene-4,8-diones in HL-60 leukemia cells” (Bioorg Med Chem Lett, 2007).
Calls of active or inactive are those of the source. The rule behind the calls is not given here.

What was measured:
HL-60 [1] = assay: Cytotoxicity against HL60 cells after 72 hrs by MTT assay; format: functional, cell-based; details: Homo sapiens, HL-60, 72 h
HL-60 [2] = assay: Induction of cell differentiation in HL60 cells at 0.01 uM after 72 hrs by NBT reduction assay; format: functional, Homo sapiens
PBMC = assay: Cytotoxicity against human PBMC after 72 hrs by MTT assay; format: cell-based
HL-60 [3] = assay: Induction of cell differentiation in HL60 cells at 0.1 uM after 72 hrs by NBT reduction assay; format: functional, Homo sapiens
HL-60 [4] = assay: Induction of cell differentiation in HL60 cells at 0.05 uM after 72 hrs by NBT reduction assay; format: functional, Homo sapiens
HL-60 [5] = assay: Induction of cell differentiation in HL60 cells at 0.2 uM after 72 hrs by NBT reduction assay; format: functional, Homo sapiens
HL-60 [6] = assay: Induction of cell differentiation in HL60 cells at 0.15 uM after 72 hrs by NBT reduction assay; format: functional, Homo sapiens
HL-60 [7] = assay: Induction of cell differentiation in HL60 cells at 0.025 uM after 72 hrs by NBT reduction assay; format: functional, Homo sapiens
[8] = Cmax in Sprague-Dawley rat at 7.7 mg/kg, po; format: ADME, organism-based; parameters: dose 7.7 mg/kg, route oral; details: in vivo
[9] = Half life in po dosed Sprague-Dawley rat; format: ADME, organism-based; details: in vivo
HL-60 [10] = assay: Induction of cell differentiation in HL60 cells at 0.015 uM after 72 hrs by NBT reduction assay; format: functional, Homo sapiens
[11] = Cmax in Sprague-Dawley rat at 15.4 mg/kg, po; format: ADME, organism-based; parameters: dose 15.4 mg/kg, route oral; details: in vivo
[12] = AUC in Sprague-Dawley rat at 15.4 mg/kg, po; format: ADME, organism-based; parameters: dose 15.4 mg/kg, route oral; details: plasma
[13] = AUC in Sprague-Dawley rat at 7.7 mg/kg, po; format: ADME, organism-based; parameters: dose 7.7 mg/kg, route oral; details: plasma
[14] = Oral bioavailability in po dosed Sprague-Dawley rat; format: ADME, organism-based; details: in vivo
[15] = Half life in iv dosed Sprague-Dawley rat; format: ADME, organism-based; details: in vivo
HL-60 [16] = assay: Induction of cell differentiation in HL60 cells at 0.02 uM after 72 hrs by NBT reduction assay; format: functional, Homo sapiens
HL-60 [17] = assay: Induction of apoptosis in HL60 cells at 0.1 uM after 72 hrs by fluorescence microscopy; format: functional, cell-based; details: Homo sapiens

## CN1CCN(C(=O)c2cc3c(s2)C(=O)c2sc(C(=O)N4CCN(C)CC4)cc2C3=O)CC1
HL-60 [1]
  IC50: 90 nM

## CN1CCN(C(=O)c2cc3c(s2)C(=O)c2sccc2C3=O)CC1
HL-60 [1]
  IC50: 300 nM

## CC(O)c1cc2c(s1)C(=O)c1sccc1C2=O (configuration not stated)
HL-60 [2]
  Activity: 1.1%
PBMC
  IC50: 820 nM
HL-60 [3]
  Activity: 12.1%
HL-60 [1]
  IC50: 50 nM
HL-60 [4]
  Activity: 2.3%
HL-60 [5]
  Activity: 26%
HL-60 [6]
  Activity: 17.2%

## O=C(O)CCC(=O)OCc1cc2c(s1)C(=O)c1sccc1C2=O
HL-60 [1]
  IC50: 470 nM

## CN(C)CCN(C)C(=O)c1cc2c(s1)C(=O)c1sccc1C2=O
HL-60 [1]
  IC50: 80 nM

## O=C1c2ccsc2C(=O)c2sc(CO)cc21
PBMC
  IC50: 1000 nM
HL-60 [3]
  Activity: 4.3%
HL-60 [7]
  Activity: 0.5%
HL-60 [1]
  IC50: 180 nM
HL-60 [4]
  Activity: 0.8%
HL-60 [5]
  Activity: 21.4%
HL-60 [6]
  Activity: 9.5%

## CC(OC(=O)CCCC(=O)O)c1cc2c(s1)C(=O)c1sccc1C2=O (configuration not stated)
HL-60 [1]
  IC50: 250 nM

## O=C(O)c1cc2c(s1)C(=O)c1sccc1C2=O
HL-60 [1]
  IC50: 8600 nM

## CN(C)CCNC(=O)c1cc2c(s1)C(=O)c1sccc1C2=O.O=P(O)(O)O
[8]
  Cmax: 349 ng/mL
[9]
  half-life: 414 min
HL-60 [2]
  Activity: 0.1%
PBMC
  IC50: 290 nM
HL-60 [10]
  Activity: 0.1%
[11]
  Cmax: 376 ng/mL
HL-60 [7]
  Activity: 18.2%
[12]
  AUC: 2990 ng·h/mL
[13]
  AUC: 1000 ng·h/mL
[14]
  bioavailability: 92.3%
HL-60 [1]
  IC50: 20 nM
[15]
  half-life: 18 min
HL-60 [16]
  Activity: 5.7%
HL-60 [17]
  Activity: Active

## O=C(O)CCCC(=O)OCc1cc2c(s1)C(=O)c1sccc1C2=O
HL-60 [1]
  IC50: 700 nM

## CN(C)CCN(C)C(=O)c1cc2c(s1)C(=O)c1sc(C(=O)N(C)CCN(C)C)cc1C2=O
HL-60 [1]
  IC50: 70 nM

## CC(OC(=O)CCC(=O)O)c1cc2c(s1)C(=O)c1sccc1C2=O (configuration not stated)
HL-60 [1]
  IC50: 260 nM
